Source: patent US12601742B2, “Methods and materials for treating endometrial cancer by assessing combinations of mutations and expression levels” (Mayo Foundation for Medical Education and Research, priority 2020, dated 2026)

What was measured:
HEC-1B cell line = experiment: MTT cell viability assay and synergy assessment, HEC-1B; type: cell-based; conditions: constant ratio, 72 hours; for combinatory effect of carboplatin with GSK2141795 (cell viability): simultaneous exposure
Procedure: (§1) HEC-1B (Type I) and ARK-2 (Type II), platinum-insensitive EC cell lines, were used in this study. Both cell lines were cultured in DMEM (Dulbecco's Modified Eagle's Medium) media containing 10% FBS, 100 μg/mL streptomycin, 100 units/mL penicillin, and 2 mM L-glutamine. Cells were maintained in incubator at 37° C. in an atmosphere containing 5% CO2. Three thousand cells/well were seeded in triplicate in 96-well plates and cells were treated with increasing concentrations of panobinostat, GSK2141795, and carboplatin for 72 hours, respectively. CellTiter 96® Aqueous One Solution Cell Proliferation Assay was performed according to the manual to assess the half maximum inhibitory concentration (IC50). Constant ratio studies were carried out to investigate the combinatory effect of carboplatin with panobinostat and GSK2141795 in both HEC-1B and ARK-2 cell lines.

ARK-2 cell line = experiment: MTT cell viability assay and synergy assessment, ARK-2; type: cell-based; conditions: constant ratio, 72 hours; for combinatory effect of carboplatin with GSK2141795 (cell viability): ARK-2, simultaneous exposure
Procedure: as §1

N.N.O=C([O-])C1(C(=O)[O-])CCC1.[Pt+2] [carboplatin]
synergism: combinatory effect of carboplatin with GSK2141795 (cell viability) (HEC-1B cell line) | combinatory effect of carboplatin with panobinostat (cell viability) (HEC-1B cell line; varying concentrations) | combinatory effect of carboplatin with GSK2141795 (cell viability) (ARK-2 cell line) | combinatory effect of carboplatin with panobinostat (cell viability) (ARK-2 cell line; ARK-2, varying concentrations)

Cn1ncc(Cl)c1-c1cc(C(=O)N[C@H](CN)Cc2ccc(F)c(F)c2)oc1Cl [GSK2141795]
synergism: combinatory effect of carboplatin with GSK2141795 (cell viability) (HEC-1B cell line) | combinatory effect of carboplatin with GSK2141795 (cell viability) (ARK-2 cell line)
